{"source": "patent US6335357B1", "about": "“Pyrazole derivatives, process for preparing the same, intermediates, and pest control agent containing the same as active ingredient” (Mitsubishi Chemical Corporation, priority 1997, dated 2002)", "assay_type_in_all_cases": "in vivo", "key": {"[1]": {"test_system": "Myzus persicae", "experiment": "Low concentration test, Myzus persicae (Test Example 6)"}, "[2]": {"test_system": "Callosobruchus chinensis", "experiment": "Insecticidal effect on imagoes of Callosobruchus chinensis (Test Example 4)", "conditions": "500 ppm, sprayed emulsion, after 4 days at 25° C.", "experimental": "Insecticidal Effect on Imagoes of Callosobruchus chinensis:\nTwo adzuki beans were put in a glass cylinder (inner diameter: 3 cm; length: 15 cm), and 10 imagoes of Callosobruchus chinensis were set free therein. An agricultural and horticultural insecticide was prepared in accordance with Formulation Example 3 and diluted with water, and 0.3 ml of the resulting emulsion was sprayed in the glass cylinder by means of a spray tower (manufactured by Mizuho Rica) (duplicates at a concentration). The cylinder was kept in a thermostat at 25° C., and the mortality and agony of the larvea were examined after 4 days from the treatment to obtain a death rate (%) taking an agonizing insect as a ½ dead insect."}, "[3]": {"test_system": "Spodoptera litura", "experiment": "Low concentration test, Spodoptera litura (Test Example 6)"}, "[4]": {"test_system": "Myzus persicae", "experiment": "Insecticidal effect on larvae of Myzus persicae (Test Example 5)", "conditions": "500 ppm; Japanese radish leaves dipped in emulsion; 4th day after treatment at 25° C.", "experimental": "Insecticidal Effect on Larvae of Myzus persicae:\nWater was put in a screw bottle (volume: 10 ml), and a leafstalk of Japanese radish was placed therein and inoculated with 5 to 6 imagoes of Myzus persicae per leave. After the inoculation, the bottle was put in a glass cylinder (diameter: 3.5 cm; height: 15 cm) with a mesh cover, and the insects were let to proliferate in a thermostat kept at 25° C. for 3 days. […] The cylinder was maintained in the thermostat at 25° C., and the number of the insects on the leaves was counted on the 4th day after the treatment to obtain a death rate (%)."}, "[5]": {"test_system": "Plutella xylostella", "experiment": "Low concentration test, Plutella xylostella (Test Example 6)", "text": "Effects on the larvae of Plutella xylostella of compound Nos. 2 and 57 of the invention and, for comparison, the compound I described in an unexamined published Japanese patent application 63-316771 and the compounds II and III described in an unexamined published Japanese patent application 5-148240 were examined at varied concentrations. The results obtained are shown in Table 7 (the compound numbers in the Table correspond to the numbers in Table 1)."}, "[6]": {"test_system": "Spodoptera litura", "experiment": "Insecticidal effect on larvae of Spodoptera litura (Test Example 3)", "conditions": "500 ppm; 3-instar larvae, cabbage leaf disc soaked in suspension; after 5 days at 25° C.", "experimental": "Insecticidal Effect on Larvae of Spodoptera litura:\n(§1) A disc (6 cm in diameter) cut out of a cabbage leaf was soaked in an aqueous suspension of an agricultural and horticultural insecticide prepared in accordance with Formulation Example 1 for 1 minute, air-dried, and placed in a plastic cup (inner diameter: 7 cm). Five 3-instar larvae of Spodoptera litura were set free in the cup (duplicates at a concentation). The cup was kept in a thermostat at 25° C., and the death and agony of the larvae were examined after 5 days from the treatment to obtain a death rate (%) taking an agonizing insect as a ½ dead insect. The results obtained are show in Table 4 (the compound numbers in the Table below correspond to the numbers in Table 1)."}, "[7]": {"test_system": "Nilaparvata lugens", "experiment": "Insecticidal effect on larvae of Nilaparvata lugens (Test Example 1)", "conditions": "500 ppm; 4th instar larvae on rice seedling, sprayed emulsion; after 5 days at 25° C.", "experimental": "Insecticidal Effect on Larvae of Nilaparvata lugens:\nA rice seedling was planted in a glass cylinder (inner diameter: 3 cm; length: 17 cm), and five 4th instar larvae of Nilaparvata lugens were set free therein. An agricultural and horticultural insecticide was prepared in accordance with Formulation Example 3 and diluted with water, and 0.5 ml of the resulting emulsion was sprayed in the cylinder by means of a spray tower (manufactured by Mizuho Rika) (duplicates at a concentration). The cylinder was kept in a thermostat at 25° C., and the mortality and agony of the larvae were examined after 5 days from the treatment to obtain a death rate (%) taking an agonizing insect as a ½ dead insect."}, "[8]": {"test_system": "Plutella xylostella", "experiment": "Insecticidal effect on larvae of Plutella xylostella (Test Example 2)", "conditions": "500 ppm; 3-instar larvae, cabbage leaf disc soaked in suspension; after 4 days at 25° C.", "experimental": "Insecticideal Effect on Larvae of Plutella xylostella:\nas §1, with “of the” for “of an”, “of Plutella xylostella” for “of Spodoptera litura”, “a concentration).” for “a concentation).”, “after 4” for “after 5”, “are shown” for “are show”, “Table 3” for “Table 4”"}, "[9]": {"test_system": "CD-1 male mice", "experiment": "Single oral dose administration test in mice (acute toxicity, Test Example 7)", "conditions": "300 mg/kg single oral dose in 0.5% CMC-Na, after 7 days", "experimental": "Single Oral Dose Administration Test in Mice:\nAcute toxicity (p.o.) compound No. 1 in mice was examined as follows. For comparison, compound IV disclosed in an unexamined published Japanese patent application 63-316771 was tested similarly.\nEach test compound (300 mg) was suspended in 10 ml of a 0.5% CMC-Na aqueous solution. Five 6-week-old CD-1 male mice (available from Charles River) per group were forced to take an oral dose of 10 ml/kg of the suspension. The number of dead mice was counted after 7 days from the administration to obtain a death rate."}}, "data": [{"smiles": "Cn1cccc1CNc1c(SC(F)(F)F)c(C#N)nn1-c1c(Cl)cc(C(F)(F)F)cc1Cl", "note": "[Compound 57]", "values": [{"measurement": "Death Rate (%) Myzus persicae", "setting": "[1]; 12.5 ppm", "value": 80, "unit": "%"}, {"measurement": "Death Rate (%) Myzus persicae", "setting": "[1]; 50 ppm", "value": 90, "unit": "%"}, {"measurement": "Death Rate (%) Myzus persicae", "setting": "[1]; 200 ppm", "value": 100, "unit": "%"}, {"measurement": "Death Rate (%)", "setting": "[2]", "value": 100, "unit": "%"}, {"measurement": "Death Rate (%) Spodoptera litura", "setting": "[3]; 12.5 ppm", "value": 70, "unit": "%"}, {"measurement": "Death Rate (%) Spodoptera litura", "setting": "[3]; 50 ppm", "value": 100, "unit": "%"}, {"measurement": "Death Rate (%) Spodoptera litura", "setting": "[3]; 200 ppm", "value": 100, "unit": "%"}, {"measurement": "Death Rate (%)", "setting": "[4]", "value": 100, "unit": "%"}, {"measurement": "Death Rate (%) Plutella xylostella", "setting": "[5]; 0.2 ppm", "value": 40, "unit": "%"}, {"measurement": "Death Rate (%) Plutella xylostella", "setting": "[5]; 0.8 ppm", "value": 100, "unit": "%"}, {"measurement": "Death Rate (%) Plutella xylostella", "setting": "[5]; 3.1 ppm", "value": 100, "unit": "%"}, {"measurement": "Death Rate (%) Plutella xylostella", "setting": "[5]; 12.5 ppm", "value": 100, "unit": "%"}, {"measurement": "Death Rate (%) Plutella xylostella", "setting": "[5]; 50 ppm", "value": 100, "unit": "%"}, {"measurement": "Death Rate (%) Plutella xylostella", "setting": "[5]; 200 ppm", "value": 100, "unit": "%"}, {"measurement": "Death Rate (%)", "setting": "[6]", "value": 100, "unit": "%"}, {"measurement": "Death Rate (%)", "setting": "[7]", "value": 100, "unit": "%"}, {"measurement": "Death Rate (%)", "setting": "[8]", "value": 100, "unit": "%"}]}, {"smiles": "COc1cc(CNc2c([S+]([O-])C(F)(F)F)c(C#N)nn2-c2c(Cl)cc(C(F)(F)F)cc2Cl)ccc1O", "note": "(centres unmarked) [Compound 64]", "values": [{"measurement": "Death Rate (%)", "setting": "[2]", "value": 100, "unit": "%"}, {"measurement": "Death Rate (%)", "setting": "[7]", "value": 100, "unit": "%"}, {"measurement": "Death Rate (%)", "setting": "[8]", "value": 100, "unit": "%"}]}, {"smiles": "Cn1cccc1C=Nc1c(SC(F)(F)F)c(C#N)nn1-c1c(Cl)cc(C(F)(F)F)cc1Cl", "note": "[III]", "values": [{"measurement": "Death Rate (%) Myzus persicae", "setting": "[1]; 200 ppm", "value": 0, "unit": "%"}, {"measurement": "Death Rate (%) Spodoptera litura", "setting": "[3]; 12.5 ppm", "value": 65, "unit": "%"}, {"measurement": "Death Rate (%) Spodoptera litura", "setting": "[3]; 50 ppm", "value": 95, "unit": "%"}, {"measurement": "Death Rate (%) Spodoptera litura", "setting": "[3]; 200 ppm", "value": 100, "unit": "%"}, {"measurement": "Death Rate (%) Plutella xylostella", "setting": "[5]; 0.8 ppm", "value": 20, "unit": "%"}, {"measurement": "Death Rate (%) Plutella xylostella", "setting": "[5]; 3.1 ppm", "value": 75, "unit": "%"}, {"measurement": "Death Rate (%) Plutella xylostella", "setting": "[5]; 12.5 ppm", "value": 100, "unit": "%"}, {"measurement": "Death Rate (%) Plutella xylostella", "setting": "[5]; 50 ppm", "value": 100, "unit": "%"}, {"measurement": "Death Rate (%) Plutella xylostella", "setting": "[5]; 200 ppm", "value": 100, "unit": "%"}]}, {"smiles": "N#Cc1nn(-c2c(Cl)cc(C(F)(F)F)cc2Cl)c(N=Cc2ccncc2)c1SC(F)(F)F", "note": "[II]", "values": [{"measurement": "Death Rate (%) Myzus persicae", "setting": "[1]; 200 ppm", "value": 0, "unit": "%"}, {"measurement": "Death Rate (%) Spodoptera litura", "setting": "[3]; 3.1 ppm", "value": 60, "unit": "%"}, {"measurement": "Death Rate (%) Spodoptera litura", "setting": "[3]; 12.5 ppm", "value": 95, "unit": "%"}, {"measurement": "Death Rate (%) Spodoptera litura", "setting": "[3]; 50 ppm", "value": 200, "unit": "%"}, {"measurement": "Death Rate (%) Spodoptera litura", "setting": "[3]; 200 ppm", "value": 100, "unit": "%"}, {"measurement": "Death Rate (%) Plutella xylostella", "setting": "[5]; 0.05 ppm", "value": 80, "unit": "%"}, {"measurement": "Death Rate (%) Plutella xylostella", "setting": "[5]; 0.2 ppm", "value": 100, "unit": "%"}, {"measurement": "Death Rate (%) Plutella xylostella", "setting": "[5]; 0.8 ppm", "value": 100, "unit": "%"}, {"measurement": "Death Rate (%) Plutella xylostella", "setting": "[5]; 3.1 ppm", "value": 100, "unit": "%"}, {"measurement": "Death Rate (%) Plutella xylostella", "setting": "[5]; 12.5 ppm", "value": 100, "unit": "%"}, {"measurement": "Death Rate (%) Plutella xylostella", "setting": "[5]; 50 ppm", "value": 100, "unit": "%"}, {"measurement": "Death Rate (%) Plutella xylostella", "setting": "[5]; 200 ppm", "value": 100, "unit": "%"}]}, {"smiles": "N#Cc1nn(-c2c(Cl)cc(C(F)(F)F)cc2Cl)c(N)c1[S+]([O-])C(F)(F)F", "note": "(centres unmarked) [IV, reference compound]", "values": [{"measurement": "Death Rate (%)", "setting": "[9]", "value": 80, "unit": "%"}]}, {"smiles": "CCCNc1c(SC(F)(F)F)c(C#N)nn1-c1c(Cl)cc(C(F)(F)F)cc1Cl", "note": "[I]", "values": [{"measurement": "Death Rate (%) Myzus persicae", "setting": "[1]; 3.1 ppm", "value": 0, "unit": "%"}, {"measurement": "Death Rate (%) Myzus persicae", "setting": "[1]; 12.5 ppm", "value": 50, "unit": "%"}, {"measurement": "Death Rate (%) Myzus persicae", "setting": "[1]; 50 ppm", "value": 60, "unit": "%"}, {"measurement": "Death Rate (%) Myzus persicae", "setting": "[1]; 200 ppm", "value": 50, "unit": "%"}, {"measurement": "Death Rate (%) Spodoptera litura", "setting": "[3]; 3.1 ppm", "value": 0, "unit": "%"}, {"measurement": "Death Rate (%) Spodoptera litura", "setting": "[3]; 12.5 ppm", "value": 50, "unit": "%"}, {"measurement": "Death Rate (%) Spodoptera litura", "setting": "[3]; 50 ppm", "value": 100, "unit": "%"}, {"measurement": "Death Rate (%) Spodoptera litura", "setting": "[3]; 200 ppm", "value": 100, "unit": "%"}, {"measurement": "Death Rate (%) Plutella xylostella", "setting": "[5]; 0.2 ppm", "value": 20, "unit": "%"}, {"measurement": "Death Rate (%) Plutella xylostella", "setting": "[5]; 0.8 ppm", "value": 85, "unit": "%"}, {"measurement": "Death Rate (%) Plutella xylostella", "setting": "[5]; 3.1 ppm", "value": 100, "unit": "%"}, {"measurement": "Death Rate (%) Plutella xylostella", "setting": "[5]; 12.5 ppm", "value": 100, "unit": "%"}, {"measurement": "Death Rate (%) Plutella xylostella", "setting": "[5]; 50 ppm", "value": 100, "unit": "%"}, {"measurement": "Death Rate (%) Plutella xylostella", "setting": "[5]; 200 ppm", "value": 100, "unit": "%"}]}]}
